Laboratory results taken from patent US20100249243A1, “NOVEL BETA-HYDROXYKETONES AND BETA-ALKOXYKETONES WITH ESTROGENIC ACTIVITY” (priority 2007, published 2010).

Key:
ERβ [1] = target: T1, ERβ (Homo sapiens, UniProt Q92731); experiment: ERβ luciferase reporter (pERE2TATA-LUC) transactivation assay in transfected HEK293 cells; format: cell-based; parameters: expressed in transfected cells; host or cells: HEK293; conditions: for Emax at 10 µM: HEK293, 24 h, read-out: ERβ receptor activation relative to 10 nM E2 corresponding 100, Table 1, sample concentration 10 μM, mean of at least three independent transfections, SEM typically <15%; for ERβ in vitro activity (receptor activation relative to 10 nM E2): Table 2, previously published compounds, test compound 10 μM
Procedure: (§1) All other reagents were of reagent grade from Sigma or Fluka. One day before transfection, HEK293 cells were seeded in 48-well plates (70×10^3 cells per well) in phenol-free Dulbecco's modified Eagle medium supplemented with 5% delipidated fetal bovine serum (Sigma) and antibiotics. After a medium change, the cells were transfected for 4 hours with 5 ng ERα or ERβ expression vector, 75 ng reporter plasmid pERE2TATA-LUC and 20 ng control plasmid pCMVβ by the calcium phosphate method. After transfection, the cells received fresh medium containing either vehicle (0.1% v/v) or test compound (10 μM). After 24 hours, the cells were washed, lysed and luciferase and β-galactosidase activities were determined from 20 μl of lysates with the Victor^2TM reader (PerkinElmer Wallac, Turku, Finland). […] The data are means±SEM of at least three independent transfections.

ERα [2] = target: T2, ERα (Homo sapiens, UniProt P03372); experiment: Competitive binding assay against [6,7-3H(N)]estradiol in transiently transfected COS-1 cells, ERα; conditions: for IC50: ERα IC50 (median inhibition concentration), competition against labeled E2, COS-1 cells with pSG5-hERα, 2 hours at 37° C.; for ERα RBA (relative binding affinity): in comparison to E2 = 100
T2 sequence (P03372 1-595): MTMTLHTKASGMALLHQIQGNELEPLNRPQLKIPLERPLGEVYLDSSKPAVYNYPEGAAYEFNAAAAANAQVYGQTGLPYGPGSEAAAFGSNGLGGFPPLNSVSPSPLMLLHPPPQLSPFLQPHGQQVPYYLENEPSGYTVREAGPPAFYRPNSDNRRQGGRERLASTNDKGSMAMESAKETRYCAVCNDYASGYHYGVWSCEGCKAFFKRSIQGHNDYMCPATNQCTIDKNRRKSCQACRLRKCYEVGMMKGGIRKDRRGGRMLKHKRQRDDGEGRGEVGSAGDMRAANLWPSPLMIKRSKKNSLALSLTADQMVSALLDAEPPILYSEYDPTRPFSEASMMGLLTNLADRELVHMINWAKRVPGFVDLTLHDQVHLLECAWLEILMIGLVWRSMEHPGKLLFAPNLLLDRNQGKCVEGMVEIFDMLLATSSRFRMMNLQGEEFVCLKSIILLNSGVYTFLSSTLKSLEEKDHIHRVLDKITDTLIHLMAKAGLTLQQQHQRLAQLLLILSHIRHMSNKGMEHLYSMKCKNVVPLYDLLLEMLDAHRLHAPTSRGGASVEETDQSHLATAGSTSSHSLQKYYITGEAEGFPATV
Procedure: (§2) Relative binding affinities (RBA) were measured by a competitive assay against [6, 7-^3H(N)]estradiol (PerkinElmer) in transsiently transfected COS-1 cells. […] After 2 hours of incubation at 37° C. the medium was removed. The cells were removed from the wells to 150 μl of 1× phosphate buffered saline (PBS), transferred to Eppendorf tubes and centrifuged at 4° C. using 4000 g for 5 min, and then washed twice with 150 μl of PBS. The cell pellets were dissolved to 50 μl of 0.5M NaOH and incubated for 15 min at 56° C., after which the samples were transferred to liquid twinkle tubes and treated with 3 ml of OptiPhase HiSafe 3 twinkle solution (PerkinElmer).

ERα [3] = target: T2, ERα; experiment: ERα luciferase reporter (pERE2TATA-LUC) transactivation assay in transfected HEK293 cells; format: cell-based; parameters: expressed in transfected cells; host or cells: HEK293; conditions: 24 hours; for ERα receptor activation relative to 10 nM E2 corresponding 100: Table 1, sample concentration 10 μM, mean of at least three independent transfections, SEM typically <15%; for ERα in vitro activity (receptor activation relative to 10 nM E2): Table 2, previously published compounds, test compound 10 μM
Procedure: as §1

ERβ [4] = target: T1, ERβ; experiment: Competitive binding assay against [6,7-3H(N)]estradiol in transiently transfected COS-1 cells, ERβ; conditions: for IC50: ERβ IC50 (median inhibition concentration), competition against labeled E2, COS-1 cells with pSG5-hERβ, 2 hours at 37° C.; for ERβ RBA (relative binding affinity): in comparison to E2 = 100
Procedure: as §2

T1 sequence (Q92731 whole entry): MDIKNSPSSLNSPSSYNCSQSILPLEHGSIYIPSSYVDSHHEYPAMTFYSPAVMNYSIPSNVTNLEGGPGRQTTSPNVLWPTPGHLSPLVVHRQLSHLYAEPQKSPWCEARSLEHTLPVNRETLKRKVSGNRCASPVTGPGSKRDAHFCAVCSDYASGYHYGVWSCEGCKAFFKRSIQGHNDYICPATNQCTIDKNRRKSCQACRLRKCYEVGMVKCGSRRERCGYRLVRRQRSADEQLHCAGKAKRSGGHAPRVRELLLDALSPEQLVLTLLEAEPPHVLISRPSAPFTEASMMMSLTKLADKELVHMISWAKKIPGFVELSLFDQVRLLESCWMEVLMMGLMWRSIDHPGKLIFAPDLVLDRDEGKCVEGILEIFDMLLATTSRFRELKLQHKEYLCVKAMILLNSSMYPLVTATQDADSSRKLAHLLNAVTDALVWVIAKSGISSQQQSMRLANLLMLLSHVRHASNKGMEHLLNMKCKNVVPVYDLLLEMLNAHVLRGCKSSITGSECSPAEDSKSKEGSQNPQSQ

| Compound | Emax at 10 µM (ERβ [1]) | IC50 (ERα [2]) | ERα RBA (relative binding affinity) (ERα [2]) | ERα receptor activation relative to 10 nM E2 corresponding 100 (ERα [3]) | IC50 (ERβ [4]) | ERβ RBA (relative binding affinity) (ERβ [4]) | ERβ in vitro activity (receptor activation relative to 10 nM E2) (ERβ [1]; 24 hours) | ERα in vitro activity (receptor activation relative to 10 nM E2) (ERα [3]) | ERβ receptor activation relative to 10 nM E2 corresponding 100 (ERβ [1]; Table 1, sample concentration 10 μM, 24 hours, mean of at least three independent transfections, SEM typically <15%) |
| --- | --- | --- | --- | --- | --- | --- | --- | --- | --- |
| O=C(CCc1ccc(O)cc1)CC(O)Cc1ccccc1 (stereo not drawn) [Compound 31ab, 5-Hydroxy-1-(4-hydroxy-phenyl)-6-phenyl-hexan-3-one] | 107% | 7900 nM | 0.025% | 55.0% | 1250 nM | 0.157% |  |  |  |
| O=C(CCCc1ccccc1)CC(O)c1ccccc1 (single isomer, unassigned) [Compound 59b, 1-Hydroxy-1,6-diphenyl-hexan-3-one] |  | 2170 nM | 0.090% |  | 11000 nM | 0.018% | 28.2% | 59.3% |  |
| O=C(CCCc1ccc(O)cc1)CC(O)c1ccccc1 (single isomer, unassigned) [Compound 34b, 1-Hydroxy-6-(4-hydroxy-phenyl)-1-phenyl-hexan-3-one] |  | 2.13 nM | 92.02% | 140.0% | 10.5 nM | 18.67% |  |  | 155.3% |
| O=C(CCCc1ccccc1)CC(O)c1ccccc1 (single isomer, unassigned) [Compound 59a, 1-Hydroxy-1,6-diphenyl-hexan-3-one] |  | 1700 nM | 0.115% |  | 1090 nM | 0.180% | 147.3% | 91.4% |  |
| O=C(CCCc1ccc(O)cc1)CC(O)Cc1ccccc1 (stereo not drawn) [Compound 40ab, 2-Hydroxy-7-(4-hydroxy-phenyl)-1-phenyl-heptan-4-one] | 82.3% | 105 nM | 1.867% | 105.2% | 1080 nM | 0.181% |  |  |  |
| CC(O)(CC(=O)CCCc1ccccc1)c1ccccc1 (stereo not drawn) [Compound 36ab, 6-Hydroxy-1,6-diphenyl-heptan-4-one] | 15.1% | 810 nM | 0.242% | 83.3% | 2050 nM | 0.096% |  |  |  |
